Source: patent US8835115B2, “ABCB1 genotyping to predict microtubule-stabilizing-agent-induced toxicity” (The United States of America as represented by the …, priority 2006, dated 2014)
Marks after values point to notes of the source that are not given here. Values belong to the molecule of their own block, whether it stands above or below them.

What was measured:
[1] = system: men with androgen-independent prostate cancer; assay: Docetaxel-induced peripheral neuropathy by ABCB1 2677 genotype; assay type: in vivo, human; conditions: docetaxel 30 mg/m2 iv weekly for 3 consecutive weeks
Protocol: (§1) ABCB1 genotypes were evaluated in patients from a trial involving 73 men with androgen-independent prostate cancer that were treated with either docetaxel alone or docetaxel in combination with thalidomide. Patients were administered docetaxel intravenously (30 mg/m2) over 1 hour every week for 3 consecutive weeks (n=23). Some patients additionally received 200 mg of thalidomide orally each day (n=50). Toxicity was defined by Cancer Therapy Evaluation Program/National Cancer Institute Common Toxicity Criteria (version 2.0) and patients were evaluated for symptoms of toxicity weekly.

[2] = system: men with androgen-independent prostate cancer; assay: Clinical grade of neutropenia in docetaxel-treated patients by ABCB1 genotype; assay type: in vivo, human
Protocol: as §1

[3] = Paclitaxel pharmacokinetics in plasma of treated subjects by ABCB1 genotype; conditions: for AUCp, area under the curve of total paclitaxel, Median (95% CI) / AUCu, area under the curve of unbound paclitaxel, Median (95% CI) / T > 0.05 μM, duration of total plasma concentration of paclitaxel exceeding 0.05 μM, Median (95% CI): 100 mg/m^2 iv infusion, first administration
Protocol: (§2) Twenty-six subjects were examined. There were 14 male subjects and 12 female subjects with a median age of 59.5 years (range: 42-72). The subjects were treated with weekly one- or three-hour paclitaxel infusions. All subjects had histologically proven, locally advanced or metastatic cancer, for which paclitaxel as monotherapy was a therapeutic option.
(§3) Paclitaxel (30 mg) formulated in a mixture of Cremophor and absolute:ethanol (1:1, vol/vol) (Bristol Myers Squibb, Munich, Germany) was diluted in 500 mL of 5% (weight/vol) dextrose in water and administered to subjects via a peripheral or central venous catheter using a motor-driven programmable infusion pump. Eligible subjects were randomized between a one hour and three hour infusion duration to receive a total of six weekly intravenous infusions of paclitaxel at a dose of 100 mg/m^2. After six weeks of therapy (defined as one cycle) response was evaluated bi-dimensionally, usually by computed tomography. Subjects with a stable disease, partial response or complete response after one cycle received a second cycle, provided toxic effects were not prohibitive.
Blood samples were obtained from the subjects described in Example 1 during the first paclitaxel administration at baseline and at serial time points during and after infusion. Concentrations of total paclitaxel in plasma were determined by a validated method based on reversed-phase high performance liquid chromatography with ultraviolet detection, while unbound paclitaxel plasma concentrations were determined by micro-equilibrium dialysis using a [G-^3H]paclitaxel tracer. Pertinent pharmacokinetic parameters were calculated by non-compartmental methods using WinNonlin® version 5.0 (Pharsight, Mountain View, Calif., USA).
All data are reported as median values with the associated 95% CI, unless specified otherwise. Interindividual pharmacokinetic variability was assessed as the coefficient of variation, and expressed as a percentage. The associations of the variant genotypes with individual pharmacokinetic parameters were evaluated statistically with the nonparametric Kruskal-Wallis test. All P values are two-tailed, and those less than or equal to 0.05 were considered to reflect statistically significant results.

[4] = system: subjects with locally advanced or metastatic cancer; assay: Cumulative peripheral neuropathy (clinical score >3) during weekly paclitaxel therapy by ABCB1 genotype; assay type: in vivo, human; conditions: weekly paclitaxel 100 mg/m^2, 12 weeks
From the text: Twenty-six subjects were examined.
Prior to therapy, and if possible after six and twelve weeks of therapy, these examinations were supplemented by the evaluation of the peripheral neuropathy score, clinical chemistries (serum creatinine, transaminases, alkaline phosphatase, and bilirubin), electrocardiogram analysis and performance status. For the assessment of neurotoxicity a standardized clinical peripheral neuropathy scoring system was used, which included questioning subjects' symptoms, requiring a clinical examination based on a tuning fork test, and an evaluation of strength and peripheral reflexes. This individual clinical score could range from 0 (best) to 12 (worst) points, and based on the inclusion criteria of this trial, peripheral neuropathy was defined as an event when the score exceeded a value of 3 for the first time. A score had to be obtained, at a minimum, prior to and after six and twelve weeks of therapy in order for subjects to be included.
The probability of development of a peripheral neuropathy during paclitaxel therapy as a function of time, according to various genotypes, was analyzed using the Kaplan-Meier method. Statistical significance of the differences between Kaplan-Meier curves was determined using an exact log rank test. […]

[5] = system: subjects with locally advanced or metastatic cancer; conditions: both, human, in vivo
Protocol: as §2, §3
All data are reported as median values with the associated 95% CI, unless specified otherwise.

[6] = of the 15 subjects wild-type for ABCB1 2677G>T/A
[7] = subjects carrying at least one variant allele at ABCB1 2677
[8] = genotype 2677TT + 3435TT, 11 patients in total
[9] = other ABCB1 genotypes, 39 patients in total
[10] = ABCB1 1236C>T heterozygous (N=17)
[11] = ABCB1 1236C>T variant (N=4), range quoted instead of 95% CI
[12] = ABCB1 1236C>T wild-type (N=5), range quoted instead of 95% CI
[13] = ABCB1 2677G>T heterozygous (N=13)
[14] = ABCB1 2677G>T wild-type (N=2), range quoted instead of 95% CI
[15] = ABCB1 3435C>T heterozygous (N=14)
[16] = ABCB1 3435C>T wild-type (N=4), range quoted instead of 95% CI

- subjects who developed peripheral neuropathy during the observation period [1, 6]: 11 subjects
- subjects who did not develop peripheral neuropathy during the observation period [1, 6]: 4 subjects
- subjects who developed peripheral neuropathy during the observation period [1, 7]: 32 of 35
- subjects who did not develop peripheral neuropathy during the observation period [1, 7]: 3 of 35
- # Patients with Clinical Grade of Neutropenia, Grade 0 [2, 8]: 8 patients
- # Patients with Clinical Grade of Neutropenia, Grade 2 [2, 8]: 0 patients
- # Patients with Clinical Grade of Neutropenia, Grade 3 [2, 8]: 3 patients
- # Patients with Clinical Grade of Neutropenia, Grade 0 [2, 9]: 35 patients
- # Patients with Clinical Grade of Neutropenia, Grade 2 [2, 9]: 3 patients
- # Patients with Clinical Grade of Neutropenia, Grade 3 [2, 9]: 1 patients
Structure (SMILES): CC(=O)O[C@@]12CO[C@@H]1C[C@H](O)[C@@]1(C)C(=O)[C@H](O)C3=C(C)[C@@H](OC(=O)[C@H](O)[C@@H](NC(=O)OC(C)(C)C)c4ccccc4)C[C@@](O)([C@@H](OC(=O)c4ccccc4)[C@H]21)C3(C)C [docetaxel, (2R,3S)—N-carboxy-3-phenylisoserine,N-tert-butyl ester, 13-ester with 5β-20-epoxy-1,2α,4,7β,10β,13α-hexahydroxytax-11-en-9-one 4-acetate 2-benzoate, trihydrate]

- AUCp, area under the curve of total paclitaxel, Median (95% CI) [3, 10]: 5264 (3879-6235) (ng/mL) × hr
- AUCu, area under the curve of unbound paclitaxel, Median (95% CI) [3, 10]: 470 (445-519) (ng/mL) × hrs
- T > 0.05 μM, duration of total plasma concentration of paclitaxel exceeding 0.05 μM, Median (95% CI) ([3]; ABCB1 1236C>T heterozygous (N=17, one patient without data)): 15.6 (9.3-19.3)* hours
- AUCp, area under the curve of total paclitaxel, Median (95% CI) [3, 11]: 3547 (2309-5600) (ng/mL) × hr
- AUCu, area under the curve of unbound paclitaxel, Median (95% CI) [3, 11]: 407 (362-522) (ng/mL) × hrs
- T > 0.05 μM, duration of total plasma concentration of paclitaxel exceeding 0.05 μM, Median (95% CI) [3, 11]: 15.6 (8.8-24.9) hours
- AUCp, area under the curve of total paclitaxel, Median (95% CI) [3, 12]: 4657 (2909-9916) (ng/mL) × hr
- T > 0.05 μM, duration of total plasma concentration of paclitaxel exceeding 0.05 μM, Median (95% CI) [3, 12]: 20.3 (8.8-34.2) hours
- AUCp, area under the curve of total paclitaxel, Median (95% CI) [3, 13]: 5146 (3776-7762) (ng/mL) × hr
- AUCu, area under the curve of unbound paclitaxel, Median (95% CI) [3, 13]: 482 (371-641) (ng/mL) × hrs
- T > 0.05 μM, duration of total plasma concentration of paclitaxel exceeding 0.05 μM, Median (95% CI) ([3]; ABCB1 2677G>T heterozygous (N=13, one patient without data)): 17.3 (9.6-20.7)* hours
- AUCp, area under the curve of total paclitaxel, Median (95% CI) ([3]; ABCB1 2677G>T variant (N=11)): 4203 (2309-5600) (ng/mL) × hr
- AUCu, area under the curve of unbound paclitaxel, Median (95% CI) ([3]; ABCB1 2677G>T variant (N=11)): 445 (362-516) (ng/mL) × hrs
- T > 0.05 μM, duration of total plasma concentration of paclitaxel exceeding 0.05 μM, Median (95% CI) ([3]; ABCB1 2677G>T variant (N=11)): 12.6 (8.8-19.8) hours
- AUCp, area under the curve of total paclitaxel, Median (95% CI) [3, 14]: 3348 (2909-3787) (ng/mL) × hr
- AUCu, area under the curve of unbound paclitaxel, Median (95% CI) [3, 14]: 540 (507-572) (ng/mL) × hrs
- T > 0.05 μM, duration of total plasma concentration of paclitaxel exceeding 0.05 μM, Median (95% CI) [3, 14]: 15.1 (8.8-21.3) hours
- AUCp, area under the curve of total paclitaxel, Median (95% CI) [3, 15]: 5485 (3787-6344) (ng/mL) × hr
- AUCu, area under the curve of unbound paclitaxel, Median (95% CI) [3, 15]: 512 (432-523) (ng/mL) × hrs
- T > 0.05 μM, duration of total plasma concentration of paclitaxel exceeding 0.05 μM, Median (95% CI) ([3]; ABCB1 3435C>T heterozygous (N=14, one patient without data)): 19.8 (10.5-21.3)* hours
- AUCp, area under the curve of total paclitaxel, Median (95% CI) ([3]; ABCB1 3435C>T variant (N=8)): 3656 (2259-5600) (ng/mL) × hr
- AUCu, area under the curve of unbound paclitaxel, Median (95% CI) ([3]; ABCB1 3435C>T variant (N=8)): 448 (362-522) (ng/mL) × hrs
- T > 0.05 μM, duration of total plasma concentration of paclitaxel exceeding 0.05 μM, Median (95% CI) ([3]; ABCB1 3435C>T variant (N=8)): 13.7 (8.7-18.9) hours
- AUCp, area under the curve of total paclitaxel, Median (95% CI) [3, 16]: 4534 (2909-5146) (ng/mL) × hr
- AUCu, area under the curve of unbound paclitaxel, Median (95% CI) [3, 16]: 420 (313-572) (ng/mL) × hrs
- development of peripheral neuropathy during the observation period ([4]; four subjects wild-type for ABCB1 3435C>T (3435CC)): did not develop peripheral neuropathy
- subjects who developed peripheral neuropathy ([4]; subjects carrying at least one variant allele at ABCB1 3435 (CT or TT)): 17 of 18
- fold greater percent decrease in neutrophil count at nadir, double variant versus rest of the population [5]: approximately 1.5 fold
Structure (SMILES): CC(=O)O[C@H]1C(=O)[C@@]2(C)[C@H]([C@H](OC(=O)c3ccccc3)[C@]3(O)C[C@H](OC(=O)[C@H](O)[C@@H](NC(=O)c4ccccc4)c4ccccc4)C(C)=C1C3(C)C)[C@]1(OC(C)=O)CO[C@@H]1C[C@@H]2O [paclitaxel, 5β,20-Epoxy-1,2α,4,7β,10β,13α-hexahydroxytax-11-en-9-one 4,10-diacetate 2-benzoate 13-ester with (2R,3S)—N-benzoyl-3-phenylisoserine]
- association of ABCB1 genotypes with paclitaxel pharmacokinetic parameters ([3]; 26 subjects, ABCB1 1236C>T, 2677G>T, 3435C>T, Kruskal-Wallis test): none of the studied ABCB1 genotypes were associated with interindividual differences
